Assays:
NCI-H211 = assay: In vitro tumor cell proliferation inhibition (CTG test); type: cell-based, human; conditions: small cell lung cancer cells NCI-H211
Procedure: (§1) The tumor cell strains were cultured in an incubator at 37° C. with 5% CO2. The cells were sub-cultured regularly, and those in the logarithmic growth phase were taken for plating. The cells were stained with trypan blue and the viable cells were counted. The cell concentration was adjusted to an appropriate level. The cell suspension was added to each well of the culture plate, and the culture medium without cells was added to the blank control wells. The culture plate was incubated overnight in an incubator at 37° C., 5% CO2, and 100% RH. […] The compound working solution was added to the cell culture plate, and DMSO at the same final concentration was added to the solvent control wells. Then the plate was returned to the incubator for 4-7 days of culture. The cell viability was detected according to the instructions of the Promega CellTiter-Glo (CTG) Luminescent Cell Viability Assay Kit (Promega-G7573).
(§2) The inhibition rate (IR) of the test compound was calculated using the following equation: […]
(§3) The inhibition rates of the compound at different concentrations were calculated in Excel, then the inhibition curve was plotted using GraphPad Prism software and relevant parameters, including the minimum inhibition rate, maximum inhibition rate, and IC50 were calculated. The IC50 was calculated using the following equation:
(§4) [formula] • X: log (concentration) • Y: response value, negatively correlated with X • HillSlope: slope factor

MDA-MB-468 (Rb−) = assay: as above; type: cell-based, human; conditions: 4-7 days
Procedure: as §1, §2, §3, §4

MOLM-13 = assay: as above; type: cell-based, human; conditions: hematological tumor cells MOLM-13
Procedure: as §1, §2, §3, §4

JHH-7 = assay: as above; type: cell-based, human; conditions: Rb+ liver cancer cells JHH-7
Procedure: as §1, §2, §3, §4

A2780 = assay: as above; type: cell-based, human; conditions: ovarian cancer cells A2780
Procedure: as §1, §2, §3, §4

Huh-7 = assay: as above; type: cell-based, human; conditions: Rb+ liver cancer cells Huh-7
Procedure: as §1, §2, §3, §4

HT-29 = assay: as above; type: cell-based, human; conditions: Rb+ colorectal cancer cells HT-29
Procedure: as §1, §2, §3, §4

HCT116 = assay: as above; type: cell-based, human; conditions: Rb+ colorectal cancer cells HCT116
Procedure: as §1, §2, §3, §4

Hep3B(Rb−) = assay: as above; type: cell-based, human; conditions: Hep3B(Rb−) liver cancer cells
Procedure: as §1, §2, §3, §4

MV-4-11 = assay: as above; type: cell-based, human; conditions: hematological tumor cells MV-4-11
Procedure: as §1, §2, §3, §4

SK-MEL-5 = assay: as above; type: cell-based, human; conditions: melanoma SK-MEL-5
Procedure: as §1, §2, §3, §4

MDA-MB-453 = assay: as above; type: cell-based, human; conditions: 4-7 days
Procedure: as §1, §2, §3, §4

COLO205 = assay: as above; type: cell-based, human; conditions: Rb+ colorectal cancer cells COLO205
Procedure: as §1, §2, §3, §4

[1] = Anhydrous crystalline form transformation test; type: physicochemical; conditions: mixed sample of equal amounts of crystalline form A-I and A-IV

Which results are given for `CC(=O)c1c(C)c2cnc(Nc3ccc4c(c3)OC[C@@H]3CN(C5CCN(C)CC5)CCN43)nc2n(C2CCCC2)c1=O` [Compound A]?
inhibitory activity (NCI-H211): good inhibitory activity; Maximum Inhibition Rate (%) (MDA-MB-468 (Rb−)): exceeding 99%; inhibitory activity (MOLM-13): good inhibitory activity; inhibitory activity (JHH-7): good inhibitory activity; inhibitory activity (A2780): good inhibitory activity; inhibitory activity (Huh-7): good inhibitory activity; inhibitory activity (HT-29): good inhibitory activity; inhibitory activity (HCT116): good inhibitory activity; inhibitory effect (Hep3B(Rb−)): significant inhibitory effect; maximum inhibition rate (Hep3B(Rb−)): exceeding 99%; inhibitory activity (MV-4-11): good inhibitory activity; inhibitory activity (SK-MEL-5): good inhibitory activity; Maximum Inhibition Rate (%) (MDA-MB-453): ~100%; inhibitory activity (COLO205): good inhibitory activity; Experimental results (crystalline form by XRPD) ([1]; n-Butanol/Anisole (v:v = 1:1), 25° C.): form A-I; Experimental results (crystalline form by XRPD) ([1]; n-Butanol/Anisole (v:v = 1:1), 37° C.): form A-I; Experimental results (crystalline form by XRPD) ([1]; suspension in n-Butanol, 25° C.): form A-I; Experimental results (crystalline form by XRPD) ([1]; suspension in n-Butanol, 37° C.): form A-I

Source: US20260285879A1, “CDK INHIBITOR AND CRYSTAL FORM OF PHARMACEUTICALLY ACCEPTABLE SALT THEREOF, AND USE THEREOF” (priority 2023, published 2026)
